The text below walks through data of patent publication US20260285857A1, “BICYCLIC AND HETEROCYCLIC AMIDE COMPOUNDS” (priority 2024, published 2026).

The first experiment relates to immunoglobulin light chain protein WIL-FL T46L. Nature of the experiment: Differential scanning fluorimetry (thermal shift) assay. Format: binding. The settings on record: Table A; temperature shift [Tm]compound-[Tm]vehicle; recombinant WIL-FL T46L.
Consider `Cc1cc(N2CC[C@](C)(c3ccccc3)C2)cn2nc(C(=O)O)nc12` [Compound 184], for which the DSF entry is “** (>0.5-1 °C =**)”.
`Cc1cc(N2CC[C@](C)(c3ccccc3)C2)cn2nc(C(=O)N3CC4C3CCCN4c3cccc(C(=O)O)n3)nc12` (some centres unmarked) [Compound 247]: the DSF result is recorded as “***** (>2.5° C.=*****)”.
As to `Cc1cc(N2CC[C@](C)(c3ccccc3)C2)cn2nc(C(=O)NC34CC(CO)(C3)C4)nc12` [Compound 155], the DSF result was “***** (>2.5° C.=*****)”.
`Cc1cc(N2CC[C@](CO)(c3ccccc3)C2)cn2nc(C(=O)N3CC[C@@]4(CCN(c5cccc(C(=O)O)n5)C4)C3)nc12` [Compound 332]: the DSF entry was “***** (>2.5° C.=*****)”.
Consider `CC(C)(O)c1cc(N2CC[C@](C)(c3ccccc3)C2)cn2nc(C(=O)NC3CCN(c4cccc(C(=O)O)n4)CC3)nc12` [Compound 340], for which the DSF entry was “***** (>2.5° C.=*****)”.
With `Cc1cc(N2CC[C@](C)(c3ccccc3)C2)cn2nc(C34CCC(N)(CO3)C4)nc12` (some centres unmarked) [Compound 66], the DSF entry is on record as “***** (>2.5° C.=*****)”.
Regarding `CCC(=O)N1CCC(NC(=O)c2nc3c(C)cc(N4CC[C@](C)(c5ccccc5)C4)cn3n2)CC1` [Compound 188], the DSF result is on record as “***** (>2.5° C.=*****)”.
Turning to `Cc1noc(N2CCC(NC(=O)c3nc4c(C)cc(N5CC[C@](C)(c6ccccc6)C5)cn4n3)CC2)n1` [Compound 290], the DSF result was “***** (>2.5° C.=*****)”.
As to `Cc1cc(N2CC[C@](C)(c3ccccc3)C2)cn2nc(C(=O)N3C[C@@H](O)[C@@H](O)C3)nc12` [Compound 115], the DSF result was “***** (>2.5° C.=*****)”.
In the case of `Cc1n[nH]c(C2C3COC2(c2nc4c(C)cc(N5CC[C@](C)(c6ccccc6)C5)cn4n2)C3)n1` (some centres unmarked) [Compound 74], the DSF result was “***** (>2.5° C.=*****)”.
Turning to `Cc1cc(N2CC[C@](C)(c3ccccc3)C2)cn2nc(C34CC(CO3)C4Cn3cnc(C(N)=O)n3)nc12` (some centres unmarked) [Compound 90], the DSF result is reported as “**** (>1.5-2.5° C.=****)”.
With `CNC(=O)c1nc2c(C)cc(N3CC[C@@](C)(c4ccccc4)C3)cc2o1` [Compound 435], the DSF entry was “***** (>2.5° C.=*****)”.
The same measure, in the same setting: to `Cc1cc(N2CC[C@](C)(c3ccccc3)C2)cn2nc(C(=O)N3C[C@H]4C[C@@H]3C[C@H]4Oc3cccc(C(=O)O)n3)nc12` [Compound 280] belongs “***** (>2.5° C.=*****)”.
For `Cc1cc(N2CC[C@](C)(c3ccccc3)C2)cn2nc(C34CC(CO3)C4Cn3cnn(C)c3=O)nc12` (some centres unmarked) [Compound 89], the DSF result is on record as “***** (>2.5° C.=*****)”.
Regarding `Cc1cc(N2CC[C@](C)(c3ccccc3)C2)cn2nc(C(=O)N3CCC4(CCN(c5nc(C(=O)O)cs5)C4)C3)nc12` (some centres unmarked) [Compound 218], the DSF entry was “***** (>2.5° C.=*****)”.
On to `Cc1cc(N2CC[C@](C)(c3ccccc3)C2)cn2nc(C(=O)NC3CN(c4cccc(C(=O)O)n4)CCC3(C)O)nc12` (some centres unmarked) [Compound 230], for which the DSF entry was “***** (>2.5° C.=*****)”.
As for `Cc1cc(N2CC[C@](C)(c3ccccc3)C2)cn2nc(C(=O)NC34COC(C(=O)O)(C3)C4)nc12` [Compound 172], the DSF entry is reported as “***** (>2.5° C.=*****)”.
On the same count and under the same terms, to `Cc1cc(N2CC[C@](C)(c3ccccc3)C2)cn2nc(C(=O)N3C[C@@]4(C)CN(c5cccc(C(=O)O)n5)C[C@@]4(C)C3)nc12` [Compound 252] belongs “***** (>2.5° C.=*****)”; to `Cc1cc(N2CC[C@](C)(c3ccccc3)C2)cn2nc(C34CC(CO)(CO3)C4)nc12` [Compound 60], “***** (>2.5° C.=*****)”.
On to `Cc1cc(OCC2(c3ccccc3)CC2)cn2nc(C34CC(CO3)C4N)nc12` (centres unmarked) [Compound 96], for which the DSF entry is “**** (>1.5-2.5° C.=****)”.
The same measure, in the same setting: the result for `Cc1cc(N2CC[C@](C)(c3ccccc3)C2)cn2nc(C(=O)N3CCn4c(nnc4-c4ccnc(C(=O)O)c4)C3)nc12` [Compound 407] reads “***** (>2.5° C.=*****)”.
Consider `Cc1cc(N2CC[C@](C)(c3ccccc3)C2)cn2nc(C(=O)N[C@H]3C[C@](C)(O)C3)nc12` [Compound 167], for which the DSF result was “***** (>2.5° C.=*****)”.
Same read-out and setting: to `Cc1cc(N2CC[C@](C)(c3ccccc3)C2)cn2nc(S(=O)(=O)NC3CNC3)nc12` [Compound 27, N-(azetidin-3-yl)-8-methyl-6-[(3R)-3-methyl-3-phenyl-pyrrolidin-1-yl]-[1,2,4]triazolo[1,5-a]pyridine-2-sulfonamide] belongs “***** (>2.5° C.=*****)”; to `Cc1cc(N2CC(C)(c3ccccc3)CC2=O)cn2nc(C(=O)N3CC[C@@]4(CCN(c5cccc(C(=O)O)n5)C4)C3)nc12` (some centres unmarked) [Compound 387], “** (>0.5-1 °C =**)”; to `Cc1cc(OC[C@H](C)c2ccccc2)cn2nc(C(=O)NCC(C)(C)O)nc12` [Compound 317], “***** (>2.5° C.=*****)”.
On to `Cc1cc(OC[C@H](C)c2ccccc2)cn2nc(C(=O)NC3CC4(CC(O)C4)C3)nc12` (some centres unmarked) [Compound 313], for which the DSF entry is reported as “***** (>2.5° C.=*****)”.
`Cc1cc(N2CC[C@](C)(c3ccccc3)C2)cn2nc(C(=O)N3CCC34CCCN(c3cccc(C(=O)O)n3)C4)nc12` (some centres unmarked) [Compound 195]: the DSF entry is reported as “***** (>2.5° C.=*****)”.

Staying with this experiment, now noted: Table B; temperature shift [Tm]compound-[Tm]vehicle; recombinant WIL-FL T46L.
For `Cc1cc(N2CC[C@](C)(c3ccccc3)C2)cn2nc(C34CC(CO3)C4NCC(C)(C)O)nc12` (stereo partly drawn) [Compound 528, 2-methyl-1-[[1-[8-methyl-6-[(3R)-3-methyl-3-phenyl-pyrrolidin-1-yl]-[1,2,4]triazolo[1,5-a]pyridin-2-yl]-2-oxabicyclo[2.1.1]hexan-5-yl]amino]propan-2-ol], the DSF entry is reported as “***** (>2.5° C.=*****)”.
On the same count and under the same terms, the result for `CCS(=O)(=O)NCC12COC(c3nc4c(C)cc(N5CC[C@](C)(c6ccccc6)C5)cn4n3)(C1)C2` [Compound 463] reads “***** (>2.5° C.=*****)”; that for `Cc1cc(N2CC[C@](C)(c3ccccc3)C2)cn2nc(C(=O)N3CCC4(CCC(c5cccc(C(=O)O)n5)C4)C3)nc12` (stereo partly drawn) [Compound 640, 6-[2-[8-methyl-6-[(3R)-3-methyl-3-phenyl-pyrrolidin-1-yl]-[1,2,4]triazolo[1,5-a]pyridine-2-carbonyl]-2-azaspiro[4.4]nonan-8-yl]pyridine-2-carboxylic acid], “***** (>2.5° C.=*****)”.
On to `Cc1nc([C@H]2[C@@]3(CO)CO[C@]2(c2nc4c(C)cc(N5CC[C@](C)(c6ccccc6)C5)cn4n2)C3)n[nH]1` [Compound 580, ((1R,4S,5R)-5-(5-methyl-1H-1,2,4-triazol-3-yl)-1-(8-methyl-6-((R)-3-methyl-3-phenylpyrrolidin-1-yl)-[1,2,4]triazolo[1,5-a]pyridin-2-yl)-2-oxabicyclo[2.1.1]hexan-4-yl)methanol], for which the DSF entry is recorded as “***** (>2.5° C.=*****)”.
On the same count and under the same terms, the result for `COC1(CNC(=O)c2nc3c(C)cc(N4CC[C@](C)(c5ccccc5)C4)cn3n2)CN(c2cccc(C(=O)O)n2)C1` [Compound 612] reads “***** (>2.5° C.=*****)”; that for `Cc1cc(N2CC[C@@](C)(n3ccc(C(F)(F)F)n3)C2)cn2nc(C(=O)N[C@@H]3CCN(c4cccc(C(=O)O)n4)CC34COC4)nc12` [Compound 701], “***** (>2.5° C.=*****)”.
Consider `Cc1cc(N2CC[C@](C)(c3ccccc3)C2)cn2nc(C(=O)N3CCC4(CCCN4c4cccc(C(=O)O)n4)C3)nc12` (stereo partly drawn) [Compound 675, 6-(7-(8-methyl-6-((R)-3-methyl-3-phenylpyrrolidin-1-yl)-[1,2,4]triazolo[1,5-a]pyridine-2-carbonyl)-1,7-diazaspiro[4.4]nonan-1-yl)picolinic acid], for which the DSF result is on record as “***** (>2.5° C.=*****)”.
For the compound `Cc1cc(N2CC[C@](C)(c3ccccc3)C2)cn2nc(C(=O)N3CC4C(C3)C4Nc3cccc(C(=O)O)n3)nc12` (some centres unmarked) [Compound 622], the DSF result is reported as “***** (>2.5° C.=*****)”.
Turning to `CO[C@H]1CN(c2cccc(C(=O)O)n2)CC1NC(=O)c1nc2c(C)cc(N3CC[C@](C)(c4ccccc4)C3)cn2n1` (some centres unmarked) [Compound 666], the DSF entry was “***** (>2.5° C.=*****)”.
Take `Cc1cc(N2CC[C@](C)(c3ccccc3)C2)cn2nc(C34CC(CO3)C4NCC3(N)CCOCC3)nc12` (some centres unmarked) [Compound 521]: the DSF result is on record as “***** (>2.5° C.=*****)”.
For `Cc1cc(N2CC[C@](C)(c3ccccc3)C2)cn2nc(C(=O)NC3CN(c4cccc(C(=O)O)n4)CC4(COC4)C3)nc12` (stereo partly drawn) [Compound 699, 6-[6-[[8-methyl-6-[(3R)-3-methyl-3-phenyl-pyrrolidin-1-yl]-[1,2,4]triazolo[1,5-a]pyridine-2-carbonyl]amino]-2-oxa-8-azaspiro[3.5]nonan-8-yl]pyridine-2-carboxylic acid], the DSF result is recorded as “***** (>2.5° C.=*****)”.
In the case of `Cc1nc(N2CC3(CC(NC(=O)c4nc5c(C)cc(N6CC[C@](C)(c7ccccc7)C6)cn5n4)C3)C2)ccc1C(=O)O` [Compound 663], the DSF result is on record as “***** (>2.5° C.=*****)”.
For `Cc1cc(N2CC[C@](C)(c3ccccc3)C2)cn2nc(C(=O)N3CC[C@@H]4NC(=O)C[C@@H]43)nc12` [Compound 762], the DSF entry is listed as “***** (>2.5° C.=*****)”.
Consider `COc1cc(C(=O)O)cc(N2CC[C@@]3(CCN(C(=O)c4nc5c(C)cc(N6CC[C@](C)(c7ccccc7)C6)cn5n4)C3)C2)n1` [Compound 719], for which the DSF entry is on record as “***** (>2.5° C.=*****)”.
`Cc1cc(N2CC[C@](C)(c3ccccc3)C2)cn2nc(C34CC(CO)(C3)C(C)(C)O4)nc12` [Compound 473, (R)-(3,3-dimethyl-1-(8-methyl-6-(3-methyl-3-phenylpyrrolidin-1-yl)-[1,2,4]triazolo[1,5-a]pyridin-2-yl)-2-oxabicyclo[2.1.1]hexan-4-yl)methanol]: the DSF entry was “***** (>2.5° C.=*****)”.
On to `Cc1cc(N2CC3(CC[C@@]3(C)c3ccccc3)C2)cn2nc(C(=O)N3CC[C@@]4(CCN(c5cccc(C(=O)O)n5)C4)C3)nc12` [Compound 743, 6-[(5R)-2-[8-methyl-6-[(7S)-7-methyl-7-phenyl-2-azaspiro[3.3]heptan-2-yl]-[1,2,4]triazolo[1,5-a]pyridine-2-carbonyl]-2,7-diazaspiro[4.4]nonan-7-yl]pyridine-2-carboxylic acid], for which the DSF result is “***** (>2.5° C.=*****)”.
As to `Cc1cc(N2CC[C@](C)(c3cccc(F)c3)C2)cn2nc(C34CC(CO3)C4N)nc12` (some centres unmarked) [Compound 508], the DSF result is “***** (>2.5° C.=*****)”.
